# Measurements reported in patent publication US20140220680A1, “XENO-FREE AND A FEEDER FREE SELF-RENEWAL EXTRACELLULAR MATRIX FOR LONG-TERM MAINTENANCE OF UNDIFFERENTIATED HUMAN PLURIPOTENT STEM CELLS AND METHOD OF SYNTHESIZING THE SAME” (ROYAN RESEARCH, priority 2013, published 2014).
# How the values were obtained:
# [1] = system: Royan H5 hESCs; experiment: Plating efficiency (PE) of hESC clumps on coated plates, day 7; assay type: cell-based, human
# Protocol: The Matrigel (MG) was used as a positive control in all experiments. In the first phase, with respect to table 1, the Royan H5 cell line was cultured in CM coated plates (six-well, TPP, 92006). The CM was prepared by either 24 h or 72 h incubation of neurobasal medium (Invitrogen, 21103049) supplemented with L-Gln, β-ME, NEAAs and ITS on human dermal fibroblast (HDFs) feeder layers. The HDFs were inactivated by mitomycin C for 2 h. The mitomycin C was used with a concentration of 10 μg/ml (Sigma-Aldrich, M0503). The feeder cells were cultured at high densities and at low densities in 25 cm^2 T flasks (TPP, 90025) in 4 ml of conditioned medium (160 μl/cm^2). The high density comprised of 50000 cells/cm^2 and the low density comprised of 5000 cells/cm^2. The plates were exposed to CM for either 5 min or 150 min while coating. […]
# The plating efficiency (PE) and grading morphology were conducted in nine replications. […] Results were expressed as mean±standard deviation (SD). […] The PE (based on the ratio of undifferentiated […] colonies formed per initially seeded hESCs and hiPSCs clumps) was calculated under phase contrast inverted microscope (CKX 41, Olympus). The cloning efficiency (based on the ratio of ALP-positive colonies formed per initially seeded hESCs and hiPSCs single cells) was calculated by ImageJ software version 1.4. […]
# [2] = target: Rho-associated Coiled Kinase (ROCK); settings: stated with the concentration used; no test described; cited from earlier work
substance,measurement,setting,value
Y-27632 dihydrochloride monohydrate,plating efficiency increase,[1]; ROCK inhibitor in MG compared to ROCK inhibitor in culture medium only,1.5 to 2 fold
same,plating and cloning efficiency,[1]; ROCKi added to ECM (MG) vs added to medium,increased plating and cloning efficiency
same,EC50,[2],0.8 µM
